Some test systems named below: M19-MEL melanoma; XF 498 CNS; LXFL 529 NSCLC; KM20L2 colon; DLD-1 colon; SNB-78 CNS; RXF-631 renal; HOP-18 NSCLC; MDA-N; P388/ADR leukemia; SN12K1 renal; P388 leukemia.
Test in all cases: NCI tumour cell line growth inhibition, 48 h

Structures are written as SMILES. “And” between values parts separate entries of the source, which are not always exact repeats. Equal values may be shown once.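 Each compound was tested at five concentrations against cells in 96-well plates for 48 hours. GI50 is the concentration that inhibits growth by half. TGI denotes the concentration required for complete inhibition of growth.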 Bounds are passed on as bounds.

`COC(=O)c1c(C)cc2c(c1O)C1(O)C(=O)c3cc4c(c(O)c3C(=O)C1(OC)C(O)C2)C(=O)C=C(NC1OC(C)C(OC)C(O)C1OC)C4=O` (stereo not given): the TGI was determined as 0.0516 µM with M19-MEL melanoma; 0.235 µM in the assay on XF 498 CNS; 0.205 µM in the assay with LXFL 529 NSCLC; 0.395 µM in the assay on KM20L2 colon; 0.12 µM with DLD-1 colon; 0.324 µM with SNB-78 CNS.
In the case of `N#CCCN(CCC#N)c1ccc(/C=N\c2nc(-c3ccccc3)cs2)cc1`, the TGI in the assay with M19-MEL melanoma, in the assay with XF 498 CNS, with LXFL 529 NSCLC, in the assay on KM20L2 colon, in the assay on DLD-1 colon and in the assay with RXF-631 renal was more than 100 µM throughout. The same molecule showed a TGI in the assay with SNB-78 CNS of more than 100 µM.
Take `C/C=C(\CCC1NCCc2c1[nH]c1ccccc21)[Si](C)(C)C` (stereo not given): the GI50 in the assay with M19-MEL melanoma is 6.62 µM and 1.95 µM; in the assay on KM20L2 colon, 5.29 µM and 1.92 µM. Besides, the TGI is 12.9 µM and 3.89 µM with M19-MEL melanoma; 6.99 µM and 2.75 µM in the assay on XF 498 CNS; 9.27 µM and 3.2 µM in the assay on LXFL 529 NSCLC; 50.8 µM and 19.1 µM in the assay on HOP-18 NSCLC; 11.7 µM and 4.12 µM in the assay with KM20L2 colon; 3.74 µM with MDA-N. The TGI was 14.1 µM and 11.3 µM in the assay with DLD-1 colon; 17.1 µM and 13.9 µM in the assay on RXF-631 renal; 24.5 µM and 11.7 µM in the assay on SNB-78 CNS.
Consider `Cn1cnc([N+](=O)[O-])c1SC1=NCCS1`, for which the TGI in the assay on M19-MEL melanoma, with XF 498 CNS, in the assay with LXFL 529 NSCLC, with HOP-18 NSCLC, with DLD-1 colon and in the assay on SNB-78 CNS was more than 100 µM in each case.
For the molecule `O=C(CC/C(CC(=O)c1ccc(Cl)cc1)=N/O)Nc1ccc(Cl)c(Cl)c1`, the TGI with M19-MEL melanoma, in the assay with XF 498 CNS, with LXFL 529 NSCLC, with HOP-18 NSCLC, with KM20L2 colon and in the assay on DLD-1 colon was more than 100 µM in each case. Besides, the TGI in the assay with RXF-631 renal and in the assay on SNB-78 CNS was more than 100 µM each time.
Take `O=C1C2C(C(=O)N1c1ccccc1)C1(c3ccccc3)OC2(c2ccccc2)c2ccccc21` (stereo not given): the TGI in the assay on M19-MEL melanoma, with LXFL 529 NSCLC, in the assay with HOP-18 NSCLC, in the assay on KM20L2 colon, in the assay on DLD-1 colon and with RXF-631 renal was more than 100 µM in each case.
In the case of `Cn1c(=O)c2[nH]c(C3CC(=O)CC(c4nc5c([nH]4)c(=O)n(C)c(=O)n5C)N3)nc2n(C)c1=O` (stereo not given), in the assay on MDA-N, the TGI is more than 100 µM.
Turning to `Cn1cnc([N+](=O)[O-])c1Sc1nc2cccnc2s1`, the TGI is 29.6 µM in the assay on M19-MEL melanoma; 39.2 µM in the assay on XF 498 CNS; 25 µM with LXFL 529 NSCLC; 31.7 µM in the assay on KM20L2 colon; 26.7 µM in the assay with DLD-1 colon; 28.4 µM with RXF-631 renal. The TGI with SNB-78 CNS is more than 100 µM.
As to `Cc1cc(Cl)ccc1NC(=O)CC1SC(N)=NC1=O` (stereo not given), the TGI in the assay with M19-MEL melanoma, with LXFL 529 NSCLC, with HOP-18 NSCLC, with KM20L2 colon, in the assay on DLD-1 colon and in the assay with RXF-631 renal was more than 100 µM each time.
As for `COCOCc1cc(OCc2ccccc2)c(OC)cc1Br`, the TGI in the assay on M19-MEL melanoma, with XF 498 CNS, in the assay on HOP-18 NSCLC, with KM20L2 colon, with DLD-1 colon and with SNB-78 CNS was more than 100 µM throughout.
As to `Cc1ccc(NC(=O)COC(=O)c2cccc3c(=O)c4ccccc4[nH]c23)cc1`, the TGI in the assay on M19-MEL melanoma was more than 100 µM; in the assay with XF 498 CNS it was 78.3 µM; in the assay with LXFL 529 NSCLC, more than 100 µM; with HOP-18 NSCLC it was more than 100 µM; in the assay on KM20L2 colon, more than 100 µM; in the assay on DLD-1 colon, more than 100 µM. Further, the TGI in the assay on RXF-631 renal and with SNB-78 CNS was more than 100 µM throughout.
In the case of `O=C(Nc1ccc([N+](=O)[O-])cc1C(=O)O)c1ccc([N+](=O)[O-])cc1`, the TGI is more than 100 µM in the assay with M19-MEL melanoma; more than 100 µM in the assay on XF 498 CNS; more than 100 µM in the assay on LXFL 529 NSCLC; 64.9 µM in the assay on KM20L2 colon; more than 100 µM in the assay on DLD-1 colon; more than 100 µM with RXF-631 renal.
`CC1C=CC(C)C2(O)C(=O)NC(O)C12` (stereo not given): the TGI in the assay with M19-MEL melanoma, in the assay on LXFL 529 NSCLC, in the assay on HOP-18 NSCLC, in the assay on KM20L2 colon, with DLD-1 colon and in the assay with RXF-631 renal was more than 100 µM each time. In the assay on SNB-78 CNS, the TGI is more than 100 µM.
Take `Cc1ccc([N+](=O)[O-])cc1NC(=O)C(=O)Cc1cc(=O)oc2cc(O)ccc12`: the TGI in the assay with M19-MEL melanoma, with XF 498 CNS, with LXFL 529 NSCLC, in the assay with HOP-18 NSCLC, with KM20L2 colon and with DLD-1 colon was more than 100 µM throughout. The molecule further gave a TGI with SNB-78 CNS of more than 100 µM.
Regarding `COc1ccc2cc3[n+](cc2c1OC)CCc1cc2c(cc1-3)OCO2`, the TGI in the assay with M19-MEL melanoma was 22.4 µM and 41.6 µM; in the assay on XF 498 CNS it was 66.6 µM and 31.4 µM; in the assay with LXFL 529 NSCLC it was more than 74.9 µM; in the assay with P388/ADR leukemia, more than 325 µM; with HOP-18 NSCLC, > 100 µM and 207 µM; with KM20L2 colon, > 92.5 µM and 94.6 µM. The TGI is 37.7 µM with SN12K1 renal; > 59.9 µM and 253 µM with DLD-1 colon; > 100 µM and 167 µM in the assay with SNB-78 CNS; 69.6 µM with P388 leukemia. The GI50 in the assay with DLD-1 colon is 26.2 µM and 54.2 µM.
`Cc1cc(NS(=O)(=O)c2ccc(NC(=O)c3cccc4cc5ccccc5nc34)cc2)no1`: the TGI was determined as 74.3 µM in the assay on M19-MEL melanoma; 33.6 µM with XF 498 CNS; 31.5 µM in the assay on LXFL 529 NSCLC; 75.1 µM with KM20L2 colon; 52.1 µM with DLD-1 colon; 37.5 µM with RXF-631 renal. The TGI in the assay on SNB-78 CNS is 69.6 µM.

(Values after PubChem BioAssay (NCI).)
